The structures appear in SMILES notation.

The subject of test [1] is herpex simplex virus type 1 (ATCC VR-733). Put plainly: plaque reduction test in Vero cells. Format: cell-based. The note with it: mean of three samples, 72 hours, untreated control 134 plaques. As to the method: The mutual synergistic activity of acyclovir and BVDU was evaluated on the herpex simplex virus type 1 (ATCC VR-733), grown in Vero cells (ATCC CCL 81) in MEM T-199 containing 2% calf serum.
The method used was the plaque reduction test /P. Collins et al. (1977) Annals, of the New York Academy of Sciences 284, pp. 49-59/. For this purpose, confluent monolayers of Vero cells, seeded in multi-well plates (diameter 3.5 cm) at a concentration of […] cells/plate, were infected with 150 plaque-forming units (PFU) of HSV-1 per plate.
After an adsorption period of one hour at room temperature and removal of the unadsorbed virus, the monolayers were washed with buffered saline solution and then incubated at 35°C, in 5% CO2, in MEM T-199 containing 2% calf serum and 0.75% carboxymethylcellulose, both in the absence and in the presence of the inhibitors.
72 hours later, the infected monolayers were washed three times with saline solution and dyed with a 0.1% methylene blu solution in order to be able to count the number of lysis plaques resulting from the multiplication of the virus.
The number represent the mean value of three samples, and correspond to the number of plaques obtained in the absence or in the presence of acyclovir and BVDU, used either individually or in association.
The above values were then expressed as percentage of the number of plaques obtained in untreated control cultures and plotted, in the ordinate axis, against the logarithm of the concentration used (in abscissa).
This enabled to determine the concentration of the two drugs (alone or in combination) which were necessary for reducing the number of viral plaques by 100% (ID100) […]
For orientation: Plaque reduction counts the foci of infection that form in a cell layer.

Another test relates to HSV-1. As to the kind of experiment: appearance of resistant HSV-1 mutants following treatment. The note with it: for Resistant mutants/10^4 viruses: plaques counted 72 hours later; for HSV-1 mutants resistant, pre-existing within the virus population: approximate restatement of Table 2 (drugs used individually). The class given is cell-based. The protocol:
Finally, tests were carried out which aimed at quantifying the appearance of resistant HSV-1 mutants following treatment with acyclovir and BVDU, used individually or in association. For these tests the two compounds were used in concentrations which were 3.3 times (acyclovir) and 1.4 times (BVDU) the ID 100 value, so as to be able to completerly prevent the multiplication of sensitive viruses. For this 5 purpose, […] Vero cells, infected with HSV-1 at a multiplicity of 0.3 PFU/cell, were seeded on a preformed monolayer of uninfected Vero cells and left to adhere for 4 hours at 35°C in T-199 with 2% serum, in the presence of the inhibitors.
The liquid culture medium was then removed and replaced with new medium containing the inhibitors and 0.75% carboxymethylcellulose.
The number of plaques developed following multiplication of resistant viruses was determined 72 hours later.

Test [2] has as its system type 1 (HSV-1) herpes simplex viruses. The note with it: background statement; cited from earlier work.
For test [3], the system named is type 2 (HSV-2) herpes simplex viruses. The note with it: background statement; cited from earlier work.

For `Nc1nc2c(ncn2COCCO)c(=O)[nH]1` [Acyclovir, 9-(2-hydroxyethoxymethyl) guanine], the number of plaques is reported as 111 in test [1] (Acyclovir 0.075 µM alone); 99 in test [1] (Acyclovir 0.15 µM alone); 52 in test [1] (Acyclovir 0.3 µM alone); 8 in test [1] (Acyclovir 0.6 µM alone); 0 in test [1] (Acyclovir 1.2 µM alone). In the test on HSV-1 (Acyclovir 2.5 μM alone), the “Resistant mutants/10^4 viruses” value is on record as 28.6 /10^4 viruses. Also, the “HSV-1 mutants resistant, pre-existing within the virus population” value in the test on HSV-1 is ~3 per 1000 sensitive viruses. In test [2], the “inhibition of the multiplication of HSV-1” value is reported as “inhibits to an equal extent”. Also, in test [3], the “inhibition of the multiplication of HSV-2” value is given as “inhibits to an equal extent”.

With `O=c1[nH]c(=O)n([C@H]2C[C@H](O)[C@@H](CO)O2)cc1/C=C/Br` [BVDU, E-5-(2-bromovinyl)-2'-deoxyuridine], the number of plaques in test [1] (BVDU 0.01 µM alone) turned out to be 141; in test [1] (BVDU 0.02 µM alone), 131; in test [1] (BVDU 0.04 µM alone), 109; in test [1] (BVDU 0.8 µM alone), 81. Also, the “Resistant mutants/10^4 viruses” value in the test with HSV-1 (BVDU 1.0 μM alone) is 13.8 /10^4 viruses. Also, in the test on HSV-1, the “HSV-1 mutants resistant, pre-existing within the virus population” value is listed as ~1 per 1000 sensitive viruses. Further, the “inhibition of the multiplication of HSV-1” value in test [2] was “effective against HSV-1”. Also, in test [3], the “inhibition of the multiplication of HSV-2” value is recorded as “not against HSV-2”.

(Values after patent publication EP0143987A1, “Therapeutic compositions endowed with antiviral activity” (Stendardi, Anna Gioia, priority 1983, dated 1985).)
